The test system of this test is MKL-1 (VP-MCC) cells. Description: Differential growth inhibition/cytotoxicity assay (CellTiterGlo/XTT), MKL-1. The conditions noted are these: Homo sapiens, MKL-1, 72 h, read-out: IC50 (ave ± sd).

Each structure is given as a SMILES string.

One may read the IC50 as the concentration at which inhibition is half-maximal. In the case of `CC1(C)CCC(c2ccc(Cl)cc2)=C(CN2CCN(c3ccc(C(=O)NS(=O)(=O)c4ccc(N[C@H](CCN5CCOCC5)CSc5ccccc5)c(S(=O)(=O)C(F)(F)F)c4)cc3)CC2)C1` [Navitoclax], the IC50 came to 0.2 ± 0.029 µM.

(Values after paper PMC8245553, “Identification of natural product modulators of Merkel cell carcinoma cell growth and survival” (Scientific Reports, 2021).)
